Assay results published in US20230398178A1, “METHODS AND COMPOSITIONS FOR TREATING OR PREVENTING A VAGINAL INFECTION OF GARDNERELLA VAGINALIS” (Massachusetts Institute of Technology, priority 2022, published 2023).
Entries after “also recorded” stand apart in the source; their conditions may differ.

Assays:
G. vaginalis 14018 [1] = test: Biofilm formation of G. vaginalis 14018 in polystyrene plates (CFU assay); assay type: cell-based, Gardnerella vaginalis; conditions: for effect on (proportional) biofilm formation, in words: G. vaginalis 14018, 24 hour biofilms, NYCIII media; for reduction of biofilm formation: G. vaginalis 14018, NYCIII media, anaerobic, 24 h, 0.2 wt %
G. vaginalis 14018 [2] = test: Total growth of G. vaginalis 14018 (CFU assay); assay type: cell-based, Gardnerella vaginalis; conditions: for effect on total growth, in words: G. vaginalis 14018, NYCIII media (contains 1% glucose), soluble additive; for effect on growth in media without glucose, in words: G. vaginalis 14018, NYCIII media without glucose (data not shown); for suppression of growth: G. vaginalis 14018, glucose-rich NYCIII media, 0.2 wt % soluble monosaccharide
[3] = system: Gardnerella vaginalis 49145; test: Biofilm formation of G. vaginalis 49145 (CFU assay); assay type: cell-based
[4] = system: Gardnerella vaginalis ATCC 14018 mature biofilms; test: Disruption of established G. vaginalis biofilms (CFU of biofilm and supernatant fractions); assay type: cell-based; conditions: for viable cell counts in supernatant / biofilm fractions, in words: pre-established 24 h biofilms, 24 h treatment
Protocol: Gardnerella vaginalis 14018 ATCC strain was obtained from ATCC. Salivary MUC5B mucin was isolated and purified as described previously. Galactose and D-Fucose were obtained from Sigma-Aldrich. AnaeroPacks were purchased from VWR. Prior to the experiment, MUC5B mucin was weighed out and solubilized to desired concentration on a shaker overnight. To establish mature biofilms, an overnight preculture of Gardnerella vaginalis ATCC 14018 was diluted 1:20 into fresh NYC III medium with 1% glucose and incubated at 37° C. in the anaerobic chamber for 24 h. Before adding fresh solutions, a set of triplicate wells was sacrificed to quantify cell counts in supernatant and biofilm fraction at the 24 h timepoint. The spent supernatant was gently drained from the rest of the wells and fresh medium or mucin/monosaccharide solutions in medium were added on top of the bacterial biomass. Plate was gently rocked (100 rpm) for 24 h in the anaerobic atmosphere (generated with AnaeroPack, Mitsubishi in the airtight container) in the 37° C. incubator. After 24 h, the supernatant was removed into a separate plate and the biofilms were washed twice with […], sterile phosphate-buffer saline (PBS) and washes were combined with the supernatant (=supernatant fraction). Another […], of PBS was added to the biofilms, each well was vigorously scraped with P20 tip for 20 s and scraped biomass pipetted up and down to homogenize the solution (=biofilm fraction). Both supernatant and biofilm solutions were serially diluted, plated on BHI-agar (BHI=brain-heart infusion, 1.5% agar) and incubated in the anaerobic chamber 37° C. incubator. Colonies were counted after ˜48 h.

[5] = system: Gardnerella vaginalis 49145; test: Total growth of G. vaginalis 49145 (CFU assay); assay type: cell-based; conditions: G. vaginalis 49145, glucose-rich media
[6] = system: Gardnerella vaginalis mature biofilms; test: Minimum biofilm eradication assay with metronidazole; assay type: cell-based; conditions: 0.2 wt % monosaccharide with metronidazole concentration series, established biofilms, 24 h
Protocol: Mature biofilms of Gardnerella vaginalis were established as described above. On a separate plate serial dilution of metronidazole alone or in combination with 0.2 wt % Gal/D-Fuc were prepared in NYC III 1% Glc medium. Negative controls (no metronidazole) were also included on the plate. After spent supernatant was drained from mature biofilms, 100 μL, of metronidazole/metronidazole-monosaccharide or negative controls solutions were added to the biofilms and plate was rocked (100 rpm) for 24 h in the anaerobic atmosphere (generated with AnaeroPack, Mitsubishi in the airtight container) in the 37° C. incubator. After 24 h incubation, the CFUs of supernatant and biofilm fractions were quantified as described in the biofilm disruption experiment.

| Molecule | effect on (proportional) biofilm formation, in words (G. vaginalis 14018 [1]) | effect on total growth, in words (G. vaginalis 14018 [2]) | reduction of biofilm formation (G. vaginalis 14018 [1]) [%] | effect on biofilm formation, in words [3] | viable cell counts in supernatant / biofilm fractions, in words [4] | further results |
| --- | --- | --- | --- | --- | --- | --- |
| CC(=O)N[C@H]1C(O)O[C@H](CO)[C@@H](O)[C@@H]1O (stereo partly drawn) [GlcNAc, N-acetyl D-glucosamine, reference compound] | only galactose was able to reduce proportional biofilm formation | have no effect |  |  |  |  |
| CC(=O)N[C@H]1[C@H]([C@H](O)[C@H](O)CO)OC(O)(C(=O)O)C[C@@H]1O (stereo partly drawn) [NeuNAc, N-acetyl D-neuraminic acid, reference compound] | only galactose was able to reduce proportional biofilm formation |  |  |  |  |  |
| CC(=O)N[C@H]1C(O)O[C@H](CO)[C@H](O)[C@@H]1O (stereo partly drawn) [GalNAc, N-acetyl D-galactosamine, reference compound] | only galactose was able to reduce proportional biofilm formation | have no effect |  |  |  |  |
| C[C@@H](O)[C@H](O)[C@H](O)[C@@H](O)C=O [D-fucose, 6-deoxy-D-galactose] | inhibit biofilm formation | limited G. vaginalis growth in glucose-rich media; also recorded: reduced the overall growth | 72 | reduction of biofilm formation | reduction in viable cells in both biofilm and supernatant fractions | effect on (proportional) biofilm formation, in words (G. vaginalis 14018 [1]; listed as D-Fuc): significantly reduced proportional biofilm formation; effect on growth in media without glucose, in words (G. vaginalis 14018 [2]): did not diminish; suppression of growth (G. vaginalis 14018 [2]): 75%; effect on total growth, in words [5]: suppressed the growth; effect in combination with metronidazole on biofilm eradication, in words ([6]; listed as D-Fuc): synergistic effect; effect in combination with metronidazole on biofilm eradication, in words ([6]; listed as D-Fucose): potentiate the action of antibiotic metronidazole |
| O=C[C@H](O)[C@@H](O)[C@@H](O)[C@H](O)CO [galactose, D-galactose] | inhibit biofilm formation; also recorded: significantly reduced proportional biofilm formation | limited G. vaginalis growth in glucose-rich media; also recorded: reduced the overall growth | 85 | reduction of biofilm formation | reduction in viable cells in both biofilm and supernatant fractions | effect on growth in media without glucose, in words (G. vaginalis 14018 [2]): did not diminish; suppression of growth (G. vaginalis 14018 [2]): 90%; effect in combination with metronidazole on biofilm eradication, in words [6]: potentiate the action of antibiotic metronidazole; effect in combination with metronidazole on biofilm eradication, in words ([6]; listed as Gal): synergistic effect |
| C[C@H](O)[C@@H](O)[C@@H](O)[C@H](O)C=O [L-Fuc, L-fucose, reference compound] | only galactose was able to reduce proportional biofilm formation |  |  |  |  |  |
| MUC5B: mucin glycoprotein, predominant in cervicovaginal fluid, purified from pooled human saliva and reconstituted into gels | limited its biofilm formation, toxin production, and killing of endocervical cells; also recorded: reduces relative biofilm formation | did not limit the growth of the bacteria; also recorded: did not have any detrimental impact | 76 | reduction of biofilm formation | increase in the cell counts in the supernatant | effect on (proportional) biofilm formation, in words (G. vaginalis 14018 [1]; listed as mucin): inhibit biofilm formation; disruption of established biofilms, in words ([4]; pre-established biofilms): disrupt established biofilms |
